Values of other authors as cited in PMC9851200, “Multiparameter phenotypic screening for endogenous TFEB and TFE3 translocation identifies novel chemical series modulating lysosome function” (Autophagy, 2022).

What was measured:
Design in all cases: method as in original PKIS2 published data
[1] = biological target: kinases (KINOMEscan panel) (Homo sapiens, UniProt O75116); settings: kinase ROCK2; Published KINOMEscan; ref original PKIS2 published data; cited from earlier work
[2] = biological target: T1, kinases (KINOMEscan panel) (Homo sapiens, UniProt P43403); settings: Published KINOMEscan; ref original PKIS2 published data; cited from earlier work
T1 sequence (P43403 1-619): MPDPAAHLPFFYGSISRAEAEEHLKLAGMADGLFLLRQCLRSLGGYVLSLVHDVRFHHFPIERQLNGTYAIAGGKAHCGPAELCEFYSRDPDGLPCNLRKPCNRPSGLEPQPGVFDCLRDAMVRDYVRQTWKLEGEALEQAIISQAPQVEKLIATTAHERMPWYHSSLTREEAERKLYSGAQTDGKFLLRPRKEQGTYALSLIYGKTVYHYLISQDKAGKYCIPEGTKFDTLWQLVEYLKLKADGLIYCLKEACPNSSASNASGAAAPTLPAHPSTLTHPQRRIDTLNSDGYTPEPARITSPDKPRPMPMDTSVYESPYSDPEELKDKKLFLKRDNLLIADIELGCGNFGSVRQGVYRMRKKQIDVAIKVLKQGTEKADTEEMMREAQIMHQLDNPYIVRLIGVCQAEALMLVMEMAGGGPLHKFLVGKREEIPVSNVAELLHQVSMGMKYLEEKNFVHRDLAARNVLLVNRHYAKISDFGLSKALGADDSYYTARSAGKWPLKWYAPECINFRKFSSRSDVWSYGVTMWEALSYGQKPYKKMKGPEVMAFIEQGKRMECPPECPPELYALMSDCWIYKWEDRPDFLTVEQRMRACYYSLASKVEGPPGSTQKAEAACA

[3] = biological target: T2, kinases (KINOMEscan panel) (Homo sapiens, UniProt P51956); settings: kinase NEK3; Published KINOMEscan; ref original PKIS2 published data; cited from earlier work
T2 sequence (P51956 1-506): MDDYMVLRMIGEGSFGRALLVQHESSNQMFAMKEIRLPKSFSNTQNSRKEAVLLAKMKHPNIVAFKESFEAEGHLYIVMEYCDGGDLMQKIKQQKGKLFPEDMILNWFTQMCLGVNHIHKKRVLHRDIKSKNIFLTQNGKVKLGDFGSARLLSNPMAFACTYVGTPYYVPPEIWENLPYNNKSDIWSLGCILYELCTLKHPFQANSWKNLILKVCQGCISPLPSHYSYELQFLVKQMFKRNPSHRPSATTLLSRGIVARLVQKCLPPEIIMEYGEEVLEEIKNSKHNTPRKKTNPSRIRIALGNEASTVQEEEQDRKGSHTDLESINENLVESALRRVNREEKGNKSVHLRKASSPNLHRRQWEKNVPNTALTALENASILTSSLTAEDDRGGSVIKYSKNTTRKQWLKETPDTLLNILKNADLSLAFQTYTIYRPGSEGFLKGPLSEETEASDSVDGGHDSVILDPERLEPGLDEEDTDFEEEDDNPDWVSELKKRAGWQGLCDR

[4] = biological target: kinases (KINOMEscan panel) (Homo sapiens, UniProt Q00526); settings: CDK3; Published KINOMEscan; ref original PKIS2 published data; cited from earlier work
[5] = biological target: T3, kinases (KINOMEscan panel) (Homo sapiens, UniProt Q13470); settings: TNK1; Published KINOMEscan; ref original PKIS2 published data; cited from earlier work
T3 sequence (Q13470 1-666): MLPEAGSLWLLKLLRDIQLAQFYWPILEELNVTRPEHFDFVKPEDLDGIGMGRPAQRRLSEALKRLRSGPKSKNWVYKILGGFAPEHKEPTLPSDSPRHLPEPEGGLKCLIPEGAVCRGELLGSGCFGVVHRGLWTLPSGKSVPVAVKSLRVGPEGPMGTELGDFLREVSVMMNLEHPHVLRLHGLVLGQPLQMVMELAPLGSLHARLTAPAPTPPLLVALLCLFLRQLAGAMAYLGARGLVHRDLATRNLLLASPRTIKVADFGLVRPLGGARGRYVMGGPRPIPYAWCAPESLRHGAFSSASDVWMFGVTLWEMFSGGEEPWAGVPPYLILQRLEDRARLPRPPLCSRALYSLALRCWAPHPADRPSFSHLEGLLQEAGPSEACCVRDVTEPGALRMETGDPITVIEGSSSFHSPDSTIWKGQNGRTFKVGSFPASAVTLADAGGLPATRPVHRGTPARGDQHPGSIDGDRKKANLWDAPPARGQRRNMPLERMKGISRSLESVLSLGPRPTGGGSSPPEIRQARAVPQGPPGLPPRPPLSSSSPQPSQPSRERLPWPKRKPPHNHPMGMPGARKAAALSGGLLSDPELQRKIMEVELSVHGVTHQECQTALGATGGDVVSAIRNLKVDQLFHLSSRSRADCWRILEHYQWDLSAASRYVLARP

[6] = biological target: kinases (KINOMEscan panel) (Homo sapiens, UniProt Q8TDR2); settings: STK35; Published KINOMEscan; ref original PKIS2 published data; cited from earlier work
Chain of kinases (KINOMEscan panel) (Homo sapiens, UniProt Q8TDR2) (Q8TDR2 whole entry): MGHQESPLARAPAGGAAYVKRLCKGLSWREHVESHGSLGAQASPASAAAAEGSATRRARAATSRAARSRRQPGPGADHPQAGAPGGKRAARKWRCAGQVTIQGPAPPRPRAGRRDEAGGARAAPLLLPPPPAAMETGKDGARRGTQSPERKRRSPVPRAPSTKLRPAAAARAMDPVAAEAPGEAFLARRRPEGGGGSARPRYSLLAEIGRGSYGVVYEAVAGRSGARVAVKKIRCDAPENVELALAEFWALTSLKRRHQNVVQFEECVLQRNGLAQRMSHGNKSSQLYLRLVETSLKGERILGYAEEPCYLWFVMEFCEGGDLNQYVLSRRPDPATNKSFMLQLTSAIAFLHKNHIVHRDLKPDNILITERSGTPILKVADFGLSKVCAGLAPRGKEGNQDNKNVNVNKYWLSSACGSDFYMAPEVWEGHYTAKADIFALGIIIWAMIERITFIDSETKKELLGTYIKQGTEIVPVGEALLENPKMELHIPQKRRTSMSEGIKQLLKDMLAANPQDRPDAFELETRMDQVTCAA

Chain of kinases (KINOMEscan panel) (Homo sapiens, UniProt Q00526) (Q00526 whole entry): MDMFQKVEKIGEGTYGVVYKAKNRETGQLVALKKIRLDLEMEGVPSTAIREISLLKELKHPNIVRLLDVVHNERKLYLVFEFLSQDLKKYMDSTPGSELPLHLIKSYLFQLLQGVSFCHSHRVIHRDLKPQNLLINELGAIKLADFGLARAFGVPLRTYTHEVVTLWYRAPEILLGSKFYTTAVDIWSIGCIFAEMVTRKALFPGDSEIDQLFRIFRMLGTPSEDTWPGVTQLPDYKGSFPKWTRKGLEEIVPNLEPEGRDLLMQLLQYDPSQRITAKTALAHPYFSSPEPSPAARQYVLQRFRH
Chain of kinases (KINOMEscan panel) (Homo sapiens, UniProt O75116) (O75116 whole entry): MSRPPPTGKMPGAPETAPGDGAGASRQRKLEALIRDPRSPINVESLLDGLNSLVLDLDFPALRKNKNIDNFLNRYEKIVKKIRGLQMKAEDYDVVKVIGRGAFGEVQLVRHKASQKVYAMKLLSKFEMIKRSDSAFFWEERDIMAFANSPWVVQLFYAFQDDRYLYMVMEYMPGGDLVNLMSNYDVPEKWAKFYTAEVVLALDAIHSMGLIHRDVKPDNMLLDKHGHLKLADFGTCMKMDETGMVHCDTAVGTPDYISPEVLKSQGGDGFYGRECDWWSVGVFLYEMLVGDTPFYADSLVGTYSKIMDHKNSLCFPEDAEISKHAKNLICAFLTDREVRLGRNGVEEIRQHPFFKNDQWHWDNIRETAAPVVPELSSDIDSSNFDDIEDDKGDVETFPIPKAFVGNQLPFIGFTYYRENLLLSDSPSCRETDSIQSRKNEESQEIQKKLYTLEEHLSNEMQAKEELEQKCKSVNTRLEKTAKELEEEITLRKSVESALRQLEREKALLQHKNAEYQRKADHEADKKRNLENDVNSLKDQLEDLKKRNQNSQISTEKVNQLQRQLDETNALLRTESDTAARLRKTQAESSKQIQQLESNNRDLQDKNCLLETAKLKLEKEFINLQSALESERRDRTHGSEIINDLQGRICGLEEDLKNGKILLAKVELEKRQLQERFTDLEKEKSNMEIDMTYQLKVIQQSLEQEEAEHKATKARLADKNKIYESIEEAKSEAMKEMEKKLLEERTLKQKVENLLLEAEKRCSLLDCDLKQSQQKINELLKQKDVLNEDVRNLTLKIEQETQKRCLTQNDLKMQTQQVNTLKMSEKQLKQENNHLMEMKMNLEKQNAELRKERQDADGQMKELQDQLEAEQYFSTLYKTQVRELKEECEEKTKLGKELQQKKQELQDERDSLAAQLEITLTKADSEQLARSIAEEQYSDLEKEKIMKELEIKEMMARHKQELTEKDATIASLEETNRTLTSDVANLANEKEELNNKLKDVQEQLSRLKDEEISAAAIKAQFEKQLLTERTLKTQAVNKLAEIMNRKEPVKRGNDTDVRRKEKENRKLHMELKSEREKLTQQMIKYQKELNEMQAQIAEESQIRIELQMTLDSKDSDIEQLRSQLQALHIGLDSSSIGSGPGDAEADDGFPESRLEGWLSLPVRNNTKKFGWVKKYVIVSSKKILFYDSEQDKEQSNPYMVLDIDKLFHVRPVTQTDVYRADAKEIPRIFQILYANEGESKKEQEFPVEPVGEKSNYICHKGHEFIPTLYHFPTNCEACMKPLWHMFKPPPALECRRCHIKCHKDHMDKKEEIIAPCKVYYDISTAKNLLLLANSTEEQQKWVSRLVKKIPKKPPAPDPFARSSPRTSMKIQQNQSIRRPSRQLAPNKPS

Cc1cccc(-c2nc(Nc3ccncc3)c3ccccc3n2)n1 [NK215]
KINOMEscan ROCK2 [1]: 0
KINOMEscan ZAP70 [2]: 0
KINOMEscan NEK3 [3]: 30
KINOMEscan CDK3 [4]: 20
KINOMEscan TNK1 [5]: 39
KINOMEscan STK35 [6]: 0
